This assay concerns the target T1, LXRβ (Homo sapiens, UniProt P55055).
T1 construct: Co-transfection expression plasmids, comprising full-length LXRα (pCMX-h LXRα[…] or LXRβ (pCMX-hLXRβ)); expressed in transfected cells; host or cells: CV-1 African Green Monkey Kidney Cells
T1 sequence (P55055 1-460): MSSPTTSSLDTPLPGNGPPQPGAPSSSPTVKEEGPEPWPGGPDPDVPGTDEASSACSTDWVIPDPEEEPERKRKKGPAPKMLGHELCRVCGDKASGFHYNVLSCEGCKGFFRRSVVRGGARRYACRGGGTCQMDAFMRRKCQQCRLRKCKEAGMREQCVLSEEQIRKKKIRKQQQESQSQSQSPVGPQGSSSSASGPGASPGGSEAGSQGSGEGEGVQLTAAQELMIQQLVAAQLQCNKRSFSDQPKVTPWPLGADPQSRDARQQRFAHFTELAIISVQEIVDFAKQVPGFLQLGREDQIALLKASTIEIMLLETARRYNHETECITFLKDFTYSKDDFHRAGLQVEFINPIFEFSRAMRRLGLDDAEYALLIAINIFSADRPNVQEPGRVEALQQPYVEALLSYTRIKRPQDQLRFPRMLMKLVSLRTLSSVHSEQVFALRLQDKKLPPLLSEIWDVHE
T1 sequence (P19793 1-462 partner): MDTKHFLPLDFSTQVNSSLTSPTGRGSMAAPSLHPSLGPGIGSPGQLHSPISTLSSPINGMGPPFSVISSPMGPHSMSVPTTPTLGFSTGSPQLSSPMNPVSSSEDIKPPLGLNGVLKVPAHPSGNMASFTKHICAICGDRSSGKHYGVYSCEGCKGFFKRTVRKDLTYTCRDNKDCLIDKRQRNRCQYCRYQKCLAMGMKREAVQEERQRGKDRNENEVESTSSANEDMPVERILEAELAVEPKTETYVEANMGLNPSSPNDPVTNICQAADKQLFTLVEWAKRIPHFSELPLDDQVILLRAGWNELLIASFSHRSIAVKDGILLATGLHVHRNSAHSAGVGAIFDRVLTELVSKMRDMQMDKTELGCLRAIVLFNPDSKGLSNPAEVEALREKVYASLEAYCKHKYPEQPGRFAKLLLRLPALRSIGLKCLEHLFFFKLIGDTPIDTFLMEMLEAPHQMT
Kind of assay: Co-transfection assay (LXRE luciferase reporter), LXRβ. The assay is classed as cell-based. To be noted: for EC50: CV-1 cells transfected with pCMX-hLXRβ and LXREx1-Tk-Luciferase, 20 hours incubation; for Emax: LXRβ co-transfection, relative to high control 1-(2,4-difluorobenzyl)-2-oxo-6-(4-phenoxyphenyl)-4-(trifluoromethyl)-1,2-dihydropyridine-3-carbonitrile, read-out: % Efficacy. The source says:
To measure the ability of compounds to activate or inhibit the transcriptional activity of LXR in a cell based assay, the co-transfection assay was used. It has been shown that LXR functions as a heterodimer with RXR. For the co-transfection assay, expression plasmids for LXRα and LXRβ are introduced separately via transient transfection into mammalian cells along with a luciferase reporter plasmid that contains one copy of a DNA sequence that is bound by LXR-RXR heterodimers (LXRE; Willy, P. et. al. 1995). LXRs heterodimerize with the endogenous RXR. Treatment of transfected cells with an LXR agonist increases the transcriptional activity of LXR, which is measured by an increase in luciferase activity.
CV-1 African Green Monkey Kidney Cells
Co-transfection expression plasmids, comprising full-length LXRα (pCMX-h LXRα[…] or LXRβ (pCMX-hLXRβ), reporter plasmid (LXREx1-Tk-Luciferase), and control (pCMX-Galactosidase expression vector) (Willey et al. Genes & Development 9 1033-1045 (1995)).
CV-1 cells were prepared 24 hours prior to the experiment by plating them into T-175 flasks or 500 cm^2 dishes in order to achieve 70-80% confluency on the day of the transfection. The number of cells to be transfected was determined by the number of plates to be screened. Each well of a 384 well plate requires 1.5×10^4 cells. DNA Transfection Reagent was prepared by mixing the required plasmid DNAs with a cationic lipid transfection reagent Transit 2020 (Mirus Bio) for CV1 by following the instructions provided with the reagents. Optimal DNA amounts were determined empirically per cell line and size of vessel to be transfected. For each T175 cm^2 flask a total of 59 ug for CV1 of DNA, 133 uL Transit2020 and 4.5 mL DMEM for CV1 was mixed and added. Cells were then incubated at least 5 hours at 37° C. to prepare screening cells.
Luciferase assay reagent (*Steady-Glo Luciferase Assay System by Promega, CAT#E2550) was prepared by combining before use:
Assay plates were prepared by dispensing 5 μL of compound per well of a 384 well plate to achieve final compound concentration of 10 μM and no more than 0.5% DMSO. Media was removed from the screening cells, the cells trypsinized, harvested cells by centrifugation, counted, and plated at a density of approximately 1.5×10^4 cells in the 384 well assay plate prepared above in a volume of about 95 uL. Assay plates containing both compounds and screening cells (100 μL in total volume) were incubated for 20 hours at 37° C.
After incubation with compounds, media was removed from the cells and luciferase assay reagent (50 μL/well) added. After ˜2 minutes at ambient temperature, the assay plates were read on a luminometer (PE Biosystems Northstar reader with on-board injectors, or Envision(Perkin Elmer) or equivalent).
The LXR/LXRE co-transfection assay can be used to establish the EC50/IC50 values for potency and percent activity or inhibition for efficacy. Efficacy defines the activity of a compound relative to a high control 1-(2,4-difluorobenzyl)-2-oxo-6-(4-phenoxyphenyl)-4-(trifluoromethyl)-1,2-dihydropyridine-3-carbonitrileor a low control (DMSO/vehicle). The dose response curves are generated from a 11 point curve with concentrations differing by ½ LOG units. Each point represents the average of 2 wells of data from duplicate 384 well plate.
The data from this assay is fitted to the following equation, from which the EC50 value may be solved: Y=Bottom+(Top−Bottom)/(1+10^((logEC50-X)*HillSlope)).
The EC50/IC50 is therefore defined as the concentration at which an agonist or antagonist elicits a response that is halfway between the Top (maximum) and Bottom (baseline) values. The EC50/IC50 values represented are the averages of at least 2 and normally 3 independent experiments. […]
In general terms: In a reporter assay the amount or activity of a reporter protein is the signal.

Usually EC50 stands for the concentration giving half of the maximal effect. Read a high EC50 as a need for much substance. `CCc1nc(-c2cc(-c3cccc(S(C)(=O)=O)c3)ccc2-n2cc(C(F)(F)F)nc2C)c(-c2ccc(OC(F)(F)F)cc2)o1` [Example 555, 2-ethyl-4-(4-(2-methyl-4-(trifluoromethyl)-1H-imidazol-1-yl)-3′-(methylsulfonyl)-[1,1′-biphenyl]-3-yl)-5-(4-(trifluoromethoxy)phenyl)oxazole]: the EC50 turned out to be 18 nM and the Emax stood at 96%.
The like results for `Cc1nc(C(F)F)cn1-c1ccc(-c2ccc(CO)c(S(C)(=O)=O)c2)cc1-n1nncc1-c1ccc(OC(F)(F)F)cc1` [Example 159, {4′-[4-(difluoromethyl)-2-methyl-1H-imidazol-1-yl]-3-(methylsulfonyl)-3′-(5-{4-[(trifluoromethyl)oxy]phenyl}-1H-1,2,3-triazol-1-yl)biphenyl-4-yl}methanol] were, in that order, 783 nM and 97%.
The like results for `Cc1nc(C(F)F)c(C)n1-c1ccc(-c2cccc(S(C)(=O)=O)c2)cc1-n1nncc1-c1ccc(Cl)cc1` [Example 230, 5-(4-chlorophenyl)-1-(4-(4-(difluoromethyl)-2,5-dimethyl-1H-imidazol-1-yl)-3′-(methylsulfonyl)-[1,1′-biphenyl]-3-yl)-1H-1,2,3-triazole] were, in that order, 2050 nM and 24%.
The like results for `Cc1nc(C(F)(F)F)cn1-c1ccc(-c2cc(Cl)c(CO)c(S(C)(=O)=O)c2)cc1-n1nncc1-c1ccc(Cl)c(Cl)c1` [Example 79, {3-chloro-3′-[5-(3,4-dichlorophenyl)-1H-1,2,3-triazol-1-yl]-5-(methylsulfonyl)-4′-[2-methyl-4-(trifluoromethyl)-1H-imidazol-1-yl]biphenyl-4-yl}methanol] were, in that order, 227 nM and 71%.
For the compound `Cc1nc(C(F)(F)F)cn1-c1ccc(-c2cccc(S(C)(=O)=O)c2)cc1-c1nc(C2CC2)cn1-c1ccc2c(c1)OC(F)(F)O2` [Example 643, 4-cyclopropyl-1-(2,2-difluorobenzo[d][1,3]dioxol-5-yl)-2-(4-(2-methyl-4-(trifluoromethyl)-1H-imidazol-1-yl)-3′-(methylsulfonyl)biphenyl-3-yl)-1H-imidazole], the EC50 came out at 341 nM and the Emax was 84%.
In the case of `Cc1nc(-c2cc(-c3cc(F)cc(S(C)(=O)=O)c3)ccc2-n2cc(C(F)(F)F)nc2C)c(-c2ccc3c(c2)OC(F)(F)O3)o1` [Example 463, 5-(2,2-difluorobenzo[d][1,3]dioxol-5-yl)-4-(3′-fluoro-4-(2-methyl-4-(trifluoromethyl)-1H-imidazol-1-yl)-5′-(methylsulfonyl)biphenyl-3-yl)-2-methyloxazole], it took 155 nM to reach a half-maximal effect (EC50) and the Emax was 73%.
The like results for `Cc1nc(-c2cc(-c3cc(F)c(CO)c(S(C)(=O)=O)c3)ccc2-n2cc(C(F)(F)F)nc2C)c(-c2ccc(OC(CF)CF)c(F)c2)o1` [Example 407, (3′-(5-(4-(1,3-difluoropropan-2-yloxy)-3-fluorophenyl)-2-methyloxazol-4-yl)-3-fluoro-4′-(2-methyl-4-(trifluoromethyl)-1H-imidazol-1-yl)-5-(methylsulfonyl)biphenyl-4-yl)methanol] were, in that order, 118 nM and 70%.
The like results for `Cc1nc(-c2cc(-c3cccc(S(C)(=O)=O)c3)ccc2-n2cc(C(F)(F)F)nc2C)c(-c2cccnc2C)o1` [Example 394, 2-methyl-4-(4-(2-methyl-4-(trifluoromethyl)-1H-imidazol-1-yl)-3′-(methylsulfonyl)biphenyl-3-yl)-5-(2-methylpyridin-3-yl)oxazole] were, in that order, 615 nM and 60%.
The like results for `Cc1nc(C(F)(F)F)cn1-c1ccc(-c2cc(F)c(CO)c(S(C)(=O)=O)c2)cc1-n1nncc1-c1ccc(OC(F)(F)F)cc1` [Example 211, (3-fluoro-4′-(2-methyl-4-(trifluoromethyl)-1H-imidazol-1-yl)-5-(methylsulfonyl)-3′-(5-(4-(trifluoromethoxy)phenyl)-1H-1,2,3-triazol-1-yl)-[1,1′-biphenyl]-4-yl)methanol] were, in that order, 127 nM and 99%.
With `Cc1nc(C(F)(F)F)cn1-c1ccc(-c2cccc(S(=O)(=O)N(C)C)c2)cc1-n1nncc1-c1ccc(OC(F)(F)F)cc1` [Example 214, N,N-dimethyl-4′-(2-methyl-4-(trifluoromethyl)-1H-imidazol-1-yl)-3′-(5-(4-(trifluoromethoxy)phenyl)-1H-1,2,3-triazol-1-yl)-[1,1′-biphenyl]-3-sulfonamide], the EC50 is 210 nM and the Emax was determined as 87%.
The like results for `Cc1nc(-c2ccccc2OC(F)(F)F)c(-c2cc(-c3cc(F)c(CO)c(S(C)(=O)=O)c3)ccc2-n2cc(C(F)(F)F)nc2C)o1` [Example 632, (3-fluoro-3′-(2-methyl-4-(2-(trifluoromethoxy)phenyl)oxazol-5-yl)-4′-(2-methyl-4-(trifluoromethyl)-1H-imidazol-1-yl)-5-(methylsulfonyl)-[1,1′-biphenyl]-4-yl)methanol] were, in that order, 34 nM and 41%.
As for `Cc1nc(-c2ccc(OC(F)F)cc2)c(-c2cc(-c3ccc(CO)c(S(C)(=O)=O)c3)ccc2-n2cc(C(F)(F)F)nc2C)o1` [Example 625, (3′-(4-(4-(difluoromethoxy)phenyl)-2-methyloxazol-5-yl)-4′-(2-methyl-4-(trifluoromethyl)-1H-imidazol-1-yl)-3-(methylsulfonyl)-[1,1′-biphenyl]-4-yl)methanol], the midpoint of the response, the EC50, lay at 73 nM and the Emax turned out to be 117%.
The like results for `Cc1nc(-c2ccc(OC(F)(F)F)cc2)c(-c2cc(-c3cccc(S(C)(=O)=O)c3)ccc2-n2cc(C(F)(F)F)nc2C)o1` [Example 604, 2-methyl-5-(4-(2-methyl-4-(trifluoromethyl)-1H-imidazol-1-yl)-3′-(methylsulfonyl)-[1,1′-biphenyl]-3-yl)-4-(4-(trifluoromethoxy)phenyl)oxazole] were, in that order, 54 nM and 86%.

These data come from patent US9834542B2, “LXR modulators” (BRISTOL-MYERS SQUIBB COMPANY, priority 2013, dated 2017).
